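Method: 48-hour compound exposure of cells in 96-well plates, five concentrations, linear interpolation of endpoints. Abbreviation: GI50, concentration required for 50% inhibition of growth.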 Calls of active or inactive are those of the source. Cut-off read from the data, not from the text of the source: active = GI50 up to about 1.1 µM and inactive = higher.
Experiments:
Assay in all cases: growth of human tumour cells (NCI), 48 h
[1] = tested on: SR
[2] = tested on: SN12C
[3] = tested on: M14
[4] = tested on: NCI-H23
[5] = tested on: A498
[6] = tested on: IGROV-1
[7] = tested on: MCF7
[8] = tested on: OVCAR-3
[9] = tested on: U-251
[10] = tested on: TK-10
[11] = tested on: CAKI-1
[12] = tested on: 786-0
[13] = tested on: PC-3
[14] = tested on: SF-295
[15] = tested on: SF-539
[16] = tested on: RPMI-8226
[17] = tested on: OVCAR-8
[18] = tested on: HT-29
[19] = tested on: HCT-15
[20] = tested on: UACC-62

Compound | GI50 [1] | GI50 [2] | GI50 [3] | GI50 [4] | GI50 [5] | GI50 [6] | GI50 [7] | GI50 [8] | GI50 [9] | GI50 [10] | GI50 [11] | GI50 [12] | GI50 [13] | GI50 [14] | GI50 [15] | GI50 [16] | GI50 [17] | GI50 [18] | GI50 [19] | GI50 [20]
Cc1cc(S(=O)(=O)Nc2nc(N)nc(N(C)C)n2)c(SC(C(=O)O)c2ccccc2)cc1Cl (stereo unspecified) | > 10 µM (inactive) | > 10 µM (inactive) | > 10 µM (inactive) | > 10 µM (inactive) | > 10 µM (inactive) | > 10 µM (inactive) | > 10 µM (inactive) | > 10 µM (inactive) | > 10 µM (inactive) | > 10 µM (inactive) | > 10 µM (inactive) | > 10 µM (inactive) | > 10 µM (inactive) | > 10 µM (inactive) | > 10 µM (inactive) | > 10 µM (inactive) | > 10 µM (inactive) | > 10 µM (inactive) | > 10 µM | –
CCNC(=S)NNC(=O)c1csc(NC(=S)NC2CCCCC2)n1 | 3.5 µM (inactive) | 3.19 µM (inactive) | 11.6 µM (inactive) | 22.8 µM (inactive) | 23 µM (inactive) | – | 4.69 µM (inactive) | 3.25 µM (inactive) | 9.95 µM (inactive) | 19.1 µM (inactive) | 6.71 µM (inactive) | 6.52 µM (inactive) | 17.4 µM (inactive) | 10.2 µM (inactive) | 6.17 µM (inactive) | 11.7 µM (inactive) | 10 µM (inactive) | > 100 µM (inactive) | 1.67 µM | 6.18 µM (inactive)
COc1cc2ncnc(Nc3cccc(Br)c3)c2cc1OC | 20.3 µM (inactive) | 13.2 µM (inactive) | 3.79 µM (inactive) | 12.5 µM (inactive) | 3.12 µM (inactive) | 2.02 µM (inactive) | 23.1 µM (inactive) | 5.14 µM (inactive) | 7.06 µM (inactive) | 0.653 µM (active) | 1.37 µM (inactive) | 2.11 µM (inactive) | 3.77 µM (inactive) | 3.17 µM (inactive) | 4.07 µM (inactive) | 34.1 µM (inactive) | 3.72 µM (inactive) | 3.83 µM (inactive) | 6.56 µM | 3.85 µM (inactive)
CC(=N\N)/C(C)=N/N=C(C)/C(C)=N/N=C(C)/C(C)=N/N=C(C)/C(C)=N/N | 0.248 µM (active) | > 100 µM (inactive) | > 100 µM (inactive) | 66.8 µM (inactive) | > 100 µM (inactive) | > 100 µM (inactive) | > 100 µM (inactive) | > 100 µM (inactive) | > 100 µM (inactive) | > 100 µM (inactive) | > 100 µM (inactive) | > 100 µM (inactive) | > 100 µM (inactive) | > 100 µM (inactive) | > 100 µM (inactive) | > 100 µM (inactive) | > 100 µM (inactive) | > 100 µM (inactive) | > 100 µM | –
CCN(CC)C(=S)SC(C(=O)Nc1nnc(-c2ccc(Cl)cc2)o1)c1ccccc1 (stereo unspecified) | 4.97 µM (inactive) | 13.3 µM (inactive) | 10.8 µM (inactive) | 22.1 µM (inactive) | 11.9 µM (inactive) | 2.7 µM (inactive) | 7.26 µM (inactive) | 3.21 µM (inactive) | 10 µM (inactive) | 23.5 µM (inactive) | 11.7 µM (inactive) | 10 µM (inactive) | 3.35 µM (inactive) | 12.8 µM (inactive) | 14.8 µM (inactive) | 4.72 µM (inactive) | 5.79 µM (inactive) | 4.86 µM (inactive) | 3.81 µM | 7.35 µM (inactive)
CC#CC(O)(C(=O)OC1CC2CCC(C1)N2C)C1CCCC1 (stereo unspecified) | > 100 µM (inactive) | > 100 µM (inactive) | > 100 µM (inactive) | > 100 µM (inactive) | > 100 µM (inactive) | > 100 µM (inactive) | > 100 µM (inactive) | > 100 µM (inactive) | > 100 µM (inactive) | > 100 µM (inactive) | > 100 µM (inactive) | > 100 µM (inactive) | > 100 µM (inactive) | > 100 µM (inactive) | > 100 µM (inactive) | > 100 µM (inactive) | > 100 µM (inactive) | > 100 µM (inactive) | > 100 µM | > 100 µM (inactive)
COC1C(O)CC(OC2C(C)OC(Oc3cc(O)c4c(O)c5c(cc4c3)C[C@@H]([C@H](OC)C(=O)[C@@H](O)[C@@H](C)O)[C@H](OC3CC(OC4CC(OC6CC(C)(O)C(O)C(C)O6)C(O)C(C)O4)C(O)C(C)O3)C5=O)CC2OC(C)=O)OC1C (stereo partly specified) | 63.5 µM (inactive) | 32.5 µM (inactive) | – | 88.1 µM (inactive) | > 100 µM (inactive) | 41.1 µM (inactive) | 24.4 µM (inactive) | > 100 µM (inactive) | 48.1 µM (inactive) | > 100 µM (inactive) | > 100 µM (inactive) | > 100 µM (inactive) | > 100 µM (inactive) | > 10 µM (inactive) | 38.6 µM (inactive) | 60.8 µM (inactive) | 67.1 µM (inactive) | 65.2 µM (inactive) | > 100 µM | 29.4 µM (inactive)
COc1cccc2c1C(=O)c1c(O)c3c(c(O)c1C2=O)C[C@@](O)(C(=O)CO)C[C@@H]3OC1CC(N)C(OC)C(C)O1 (stereo partly specified) | < 0.0157 µM (active) | 0.0378 µM (active) | 0.0975 µM (active) | 0.0605 µM (active) | 0.116 µM (active) | 0.108 µM (active) | < 0.01 µM (active) | 0.338 µM (active) | 0.0224 µM (active) | 0.838 µM (active) | 0.054 µM (active) | 0.0327 µM (active) | 0.153 µM (active) | 0.0206 µM (active) | 0.0421 µM (active) | 0.024 µM (active) | 0.0289 µM (active) | 0.0559 µM (active) | 1.98 µM | 0.0461 µM (active)
CC(C)(C)OC(=O)[C@H]1CCC(=S)N1Cc1ccccc1 | > 100 µM (inactive) | > 100 µM (inactive) | > 100 µM (inactive) | > 100 µM (inactive) | > 100 µM (inactive) | > 100 µM (inactive) | > 100 µM (inactive) | > 100 µM (inactive) | > 100 µM (inactive) | > 100 µM (inactive) | > 100 µM (inactive) | > 100 µM (inactive) | > 100 µM (inactive) | > 100 µM (inactive) | > 100 µM (inactive) | > 100 µM (inactive) | > 100 µM (inactive) | – | > 100 µM | > 100 µM (inactive)
N#Cc1c(-c2ccccc2)c(C#N)c(=S)n(C2OC(CO)C(O)C(O)C2O)c1O (stereo unspecified) | > 100 µM (inactive) | > 100 µM (inactive) | > 100 µM (inactive) | > 100 µM (inactive) | > 100 µM (inactive) | > 100 µM (inactive) | > 100 µM (inactive) | > 100 µM (inactive) | – | > 100 µM (inactive) | > 100 µM (inactive) | > 100 µM (inactive) | > 100 µM (inactive) | > 100 µM (inactive) | > 100 µM (inactive) | > 100 µM (inactive) | > 100 µM (inactive) | > 100 µM (inactive) | > 100 µM | > 100 µM (inactive)
CCOC(=O)c1nc2ccc(C(F)(F)F)cc2nc1Nc1ccc(Cl)c(Cl)c1 | 75.3 µM (inactive) | > 100 µM (inactive) | 79.8 µM (inactive) | > 100 µM (inactive) | > 100 µM (inactive) | > 100 µM (inactive) | > 100 µM (inactive) | 38.3 µM (inactive) | – | > 100 µM (inactive) | 57.1 µM (inactive) | 75.3 µM (inactive) | > 100 µM (inactive) | 30.3 µM (inactive) | 69.7 µM (inactive) | > 100 µM (inactive) | 74.5 µM (inactive) | > 100 µM (inactive) | 94.4 µM | > 100 µM (inactive)
CC(=O)Oc1c2ccsc2c(OC(C)=O)c2ccsc12 | 0.317 µM (active) | 0.714 µM (active) | 0.269 µM (active) | 0.269 µM (active) | 1.77 µM (inactive) | 1.79 µM (inactive) | 0.667 µM (active) | 0.417 µM (active) | 0.869 µM (active) | 1.97 µM (inactive) | 2.11 µM (inactive) | 2.62 µM (inactive) | 0.164 µM (active) | 1.07 µM (active) | 0.294 µM (active) | 6.56 µM (inactive) | 0.337 µM (active) | 2.12 µM (inactive) | 0.573 µM | 1.59 µM (inactive)
Clc1cccc(/N=C/C=C/Nc2cccc(Cl)c2)c1 | 24.2 µM (inactive) | 14 µM (inactive) | – | 21.3 µM (inactive) | 22.9 µM (inactive) | 16 µM (inactive) | 18.8 µM (inactive) | 18.3 µM (inactive) | 16.5 µM (inactive) | 37.8 µM (inactive) | 26.1 µM (inactive) | 15.7 µM (inactive) | 15.1 µM (inactive) | 12.1 µM (inactive) | 17.2 µM (inactive) | 27.2 µM (inactive) | 18 µM (inactive) | 16.7 µM (inactive) | 17.8 µM | –
C[n+]1c(-c2ccc(/C=N\N3CCN(/N=C/c4ccc(-c5cn6ccccc6[n+]5C)cc4)CC3)cc2)cn2ccccc21 | 30.7 µM (inactive) | 54.5 µM (inactive) | 48.4 µM (inactive) | 27.8 µM (inactive) | 16.2 µM (inactive) | 57.9 µM (inactive) | > 100 µM (inactive) | > 100 µM (inactive) | 27.1 µM (inactive) | 63.4 µM (inactive) | 20.5 µM (inactive) | 21.9 µM (inactive) | > 100 µM (inactive) | 19.1 µM (inactive) | 48.4 µM (inactive) | 20.9 µM (inactive) | > 100 µM (inactive) | > 100 µM (inactive) | 88.3 µM | 33.7 µM (inactive)
